Patent US7862824B2, “Enhancement of GLP-2 activity of suppressing appetite” (1149336 Ontario, Inc., priority 2001, dated 2011)
pEC50: −log10 of the molar value. Blank lines part the entries; values can stand above or below the compound they belong to. Where no end group is shown, it is not given here.

Tests used:
[1] = target: T1, rat GLP-2 receptor (Rattus norvegicus, UniProt Q9Z0W0); experiment: cAMP accumulation in BHK cells stably expressing the rat GLP-2 receptor (RIA); type: cell-based; details: BHK-GLP-2R cells
T1 construct: expressed in transfected cells; host or cells: BHK (baby hamster kidney fibroblast) cells, stably transfected
T1 sequence (Q9Z0W0 1-550): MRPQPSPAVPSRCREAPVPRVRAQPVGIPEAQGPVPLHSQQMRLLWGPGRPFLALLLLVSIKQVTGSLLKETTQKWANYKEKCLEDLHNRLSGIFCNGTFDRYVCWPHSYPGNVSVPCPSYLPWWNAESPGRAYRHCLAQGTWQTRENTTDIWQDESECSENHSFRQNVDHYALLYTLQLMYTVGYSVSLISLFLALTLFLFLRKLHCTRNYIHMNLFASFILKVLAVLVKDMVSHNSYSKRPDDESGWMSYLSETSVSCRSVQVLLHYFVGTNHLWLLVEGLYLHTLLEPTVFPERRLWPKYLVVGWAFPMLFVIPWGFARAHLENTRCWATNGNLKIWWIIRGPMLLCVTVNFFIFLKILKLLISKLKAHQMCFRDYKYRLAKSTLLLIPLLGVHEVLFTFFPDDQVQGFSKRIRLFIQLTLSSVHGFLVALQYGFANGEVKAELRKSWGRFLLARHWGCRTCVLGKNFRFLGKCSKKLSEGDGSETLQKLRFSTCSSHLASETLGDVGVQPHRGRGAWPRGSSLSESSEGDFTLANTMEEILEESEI
Procedure: Peptides were diluted in DMEM containing 100 μM IBMX. The cAMP concentration in aliquots of ethanol extract was determined using a RIA and normalized to show cAMP/well. […] The concentration of peptide is plotted on a logarithmic scale. Error bars represent mean±SD.
GLP-2 receptors were propagated as previously described (42) and levels of intracellular cAMP were assayed following exposure to individual peptides in DMEM containing 100 μM IBMX (Sigma Chemical Co., St. Louis, Mo.) as reported (41,42). […] The treated cells were then incubated at 37° C. for 10 minutes. Absolute ethanol (−20° C.) was added to terminate the reaction and the plates were stored at −80° C. until the cell extracts were collected (2-4 hours later). Forskolin was used as a positive control. Cyclic adenosine monophosphate (cAMP) radioimmunoassays (Biomedical Technologies, Stoughton, Mass.) were performed on dried aliquots of extract and data was normalized to cAMP/well. All treatments were performed in triplicate or quadruplicate and the data is expressed as mean±SD. EC50 values were calculated using GraphPad Prism 3.00 (GraphPad Software Inc., San Diego, Calif.).

[2] = system: adult male CD1 mice; experiment: Intracerebroventricular peptide injection and food intake in wildtype mice; type: in vivo, mouse; details: for dark phase food intake: icv prior to dark phase; for dark phase food intake / food intake in fasted mice: h[Gly2]-GLP-2 50 ug, exendin-4 1 ug; for food intake in fasted mice: after 15 hour fast
Procedure: FIG. 1: h[Gly^2]-GLP-2 (also designated “440” in the Figure) inhibits dark phase food intake in mice. […] Following recovery, food intake was measured at 1, 2, and 4 hours (Hr) after injection. Values are expressed as mean±S.E.M., n=6 per group for (a) and n=8-20 for (b). (c) Groups of wildtype mice were administered either vehicle (PBS), h[Gly^2]-GLP-2 (50 ug dissolved in PBS), h[Gly^2]-GLP-2 and exendin (9-39) (50 ug of each peptide dissolved in PBS) or exendin (9-39) alone (50 ug dissolved in PBS) via icv injection. (f) Groups of wildtype mice were administered (icv) either vehicle (PBS), h[Gly^2]-GLP-2 alone (50 ug dissolved in PBS), or h[Gly^2]-GLP-2 (50 ug dissolved in PBS) and exendin (9-39) (0.05, 0.5 or 5 ug dissolved in PBS). (e) Groups of wildtype and GLP-1R−/− mice were injected icv with either vehicle (PBS) or h[Gly^2]-GLP-2 (50 ug dissolved in PBS) just prior to the start of dark phase and food intake was measured at 1, 2, and 4 hours. Data are expressed as mean±S.E.M., n=5-8 for all groups. Treatments at each time point for experiments shown in FIG. 1 were compared using a one way analysis of variance followed by an LSD multiple range test using SPSS for Windows version 5.0.1 (SPSS Inc., Chicago Ill.). *p<0.05 compared to controls (PBS), or to comparisons between groups indicated by connected lines.
For icv injections adult male CD1 mice randomized into multiple experimental groups were deeply anesthetized by inhalation of methoxyflurane (Metophane; Janssen, Toronto Ontario) (43). Following icv injections of equal volumes of saline or peptide dissolved in saline, animals were allowed to recover for ^˜15-20 minutes until the observation of a righting-response. Mice were then weighed, given a premeasured quantity of rodent chow and food intake was quantified at 1, 2, 4 and 22 hours. The accuracy of icv injection was verified at autopsy analysis by detection of bromophenol dye in the lateral ventricles of selected animals. Animals were injected with peptide at either 19:00 hours (for dark phase feeding studies) or at 10:00 hours following an overnight fast of 15 hours (for fasting studies).

[3] = target: T2, rat GLP-1 receptor (Rattus norvegicus, UniProt P32301); experiment: cAMP accumulation in BHK cells stably expressing the rat GLP-1 receptor (RIA); type: cell-based; details: BHK-GLP-1R cells
T2 construct: expressed in transfected cells; host or cells: BHK (baby hamster kidney fibroblast) cells, stably transfected
T2 sequence (P32301 22-463): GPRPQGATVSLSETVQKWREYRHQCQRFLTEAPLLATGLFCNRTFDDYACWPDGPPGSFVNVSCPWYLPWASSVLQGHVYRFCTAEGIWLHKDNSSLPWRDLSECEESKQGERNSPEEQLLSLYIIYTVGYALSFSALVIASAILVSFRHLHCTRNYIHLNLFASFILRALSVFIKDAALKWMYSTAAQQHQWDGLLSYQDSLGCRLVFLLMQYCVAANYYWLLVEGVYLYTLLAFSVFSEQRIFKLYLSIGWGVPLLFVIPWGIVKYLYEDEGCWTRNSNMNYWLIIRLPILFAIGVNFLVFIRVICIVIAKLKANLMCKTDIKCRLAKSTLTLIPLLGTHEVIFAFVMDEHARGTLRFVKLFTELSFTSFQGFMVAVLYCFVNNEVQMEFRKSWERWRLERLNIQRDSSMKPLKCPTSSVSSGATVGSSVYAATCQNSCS

[4] = system: GLP-1R-/- mice; experiment: Intracerebroventricular peptide injection and food intake in GLP-1R-/- mice; type: in vivo, mouse; details: icv 50 ug; dark phase; 0-1 hour and 2-4 hour time points
Procedure: FIG. 1: h[Gly^2]-GLP-2 (also designated “440” in the Figure) inhibits dark phase food intake in mice. […] Following recovery, food intake was measured at 1, 2, and 4 hours (Hr) after injection. Values are expressed as mean±S.E.M., n=6 per group for (a) and n=8-20 for (b). (c) Groups of wildtype mice were administered either vehicle (PBS), h[Gly^2]-GLP-2 (50 ug dissolved in PBS), h[Gly^2]-GLP-2 and exendin (9-39) (50 ug of each peptide dissolved in PBS) or exendin (9-39) alone (50 ug dissolved in PBS) via icv injection. (f) Groups of wildtype mice were administered (icv) either vehicle (PBS), h[Gly^2]-GLP-2 alone (50 ug dissolved in PBS), or h[Gly^2]-GLP-2 (50 ug dissolved in PBS) and exendin (9-39) (0.05, 0.5 or 5 ug dissolved in PBS). (e) Groups of wildtype and GLP-1R−/− mice were injected icv with either vehicle (PBS) or h[Gly^2]-GLP-2 (50 ug dissolved in PBS) just prior to the start of dark phase and food intake was measured at 1, 2, and 4 hours. Data are expressed as mean±S.E.M., n=5-8 for all groups. […]
For icv injections adult male CD1 mice randomized into multiple experimental groups were deeply anesthetized by inhalation of methoxyflurane (Metophane; Janssen, Toronto Ontario) (43). […] Mice were then weighed, given a premeasured quantity of rodent chow and food intake was quantified at 1, 2, 4 and 22 hours. […]

[5] = system: rats; details: cited from earlier work
[6] = system: human subjects with short bowel syndrome; details: 400 ug twice daily; cited from earlier work

Compound: exendin-4 [reference compound]
cAMP accumulation (agonist effect) [1]: no cAMP accumulation was detected
dark phase food intake [2]: significantly inhibited
food intake in fasted mice ([2]; icv): inhibited food intake
inhibitory effect on dark phase food intake compared with h[Gly2]-GLP-2 ([2]; icv, dark phase): significantly more potent

Compound: Rat GLP-1 (7-36)NH2 [reference compound]
cAMP accumulation (agonist effect) [1]: no cAMP accumulation was detected

pEC50 ([1]; 0 nM Exendin (9-39) pre-treatment): 10.36
pEC50 ([1]; in the presence of 50 nM Exendin (9-39)): 10.23
pEC50 ([1]; in the presence of 500 nM Exendin (9-39)): 10.12
pEC50 ([1]; in the presence of 1000 nM Exendin (9-39)): 10.09
cAMP accumulation (agonist effect) [3]: no effect on cAMP accumulation
Compound: CC[C@H](C)[C@H](NC(=O)[C@H](Cc1ccccc1)NC(=O)[C@H](CC(=O)O)NC(=O)[C@H](CCCNC(=N)N)NC(=O)[C@H](C)NC(=O)[C@H](C)NC(=O)[C@H](CC(C)C)NC(=O)[C@H](CC(N)=O)NC(=O)[C@H](CC(=O)O)NC(=O)[C@H](CC(C)C)NC(=O)[C@@H](NC(=O)[C@@H](NC(=O)[C@H](CC(N)=O)NC(=O)[C@H](CCSC)NC(=O)[C@H](CCC(=O)O)NC(=O)[C@H](CC(=O)O)NC(=O)[C@H](CO)NC(=O)[C@H](Cc1ccccc1)NC(=O)[C@H](CO)NC(=O)CNC(=O)[C@H](CC(=O)O)NC(=O)CNC(=O)[C@@H](N)Cc1c[nH]cn1)[C@@H](C)O)[C@@H](C)CC)C(=O)N[C@@H](CC(N)=O)C(=O)N[C@@H](Cc1c[nH]c2ccccc12)C(=O)N[C@@H](CC(C)C)C(=O)N[C@H](C(=O)N[C@@H](CCC(N)=O)C(=O)N[C@H](C(=O)N[C@@H](CCCCN)C(=O)N[C@H](C(=O)N[C@H](C(=O)N[C@@H](CC(=O)O)C(=O)O)[C@@H](C)O)[C@@H](C)CC)[C@@H](C)O)[C@@H](C)CC [h[Gly^2]-GLP-2]
cAMP accumulation (agonist effect) [1]: increased cAMP accumulation in a dose-dependent manner
dark phase food intake [2]: significantly inhibited
food intake in fasted mice ([2]; icv): not
food intake in the first hour after injection, absence of exendin (9-39) ([2]; icv, dark phase, 50 ug): did not inhibit food intake
duration of inhibitory effect on food intake ([2]; icv, data not shown): transient and not detectable after more than 4 hours
inhibition of food intake with co-administered exendin (9-39) ([2]; icv, wildtype mice, 50 ug of each peptide, multiple time intervals including first hour): significantly more pronounced
inhibition of food intake in GLP-1R-/- mice compared with +/+ control mice [4]: significantly greater sensitivity

Compound: glucagon-like peptide 2 (HADGSFSDEMNTILDNLAARDFINWLIQTKITD; also: acetate salt; UniProt P01275 146-178, looked up) [GLP-2, wild type glucagon-like peptide 2; literature results in rats (icv) and in humans as acetate salt]
food intake in rats after icv infusion ([5]; icv): inhibited food intake
therapeutic response in short bowel patients [6]: significant therapeutic response

Compound: exendin (9-39) [reference compound]
effect on h[Gly2]-GLP-2-stimulated cAMP formation (antagonism) ([1]; exendin (9-39) 50-1000 nM): no effect
effect on GLP-1-stimulated cAMP accumulation (antagonism) [3]: decreased GLP-1-stimulated cAMP accumulation in a concentration-dependent manner
amount sufficient for significant potentiation of anorectic effect of h[Gly2]-GLP-2 ([2]; icv with h[Gly2]-GLP-2 50 ug, dark phase, 1-2 hour time point): 0.05 µg
effect on the anorectic effects of GLP-2 in rats [5]: completely inhibited
